One experiment has as its system ear skin. Kind of experiment: IL-23 subcutaneous injection psoriasis model, skin thickness measured with calipers. The experiment is classed as in vivo, mouse. From the text:
(§1) To determine which cells are key to initiate psoriatic disease, Applicants studied a subcutaneous IL-23 injection model, which leads to increased skin thickness after five days of daily injections (FIG. 1a, FIG. 5a). First, Applicants assessed the role of different immune cell types in this model (FIG. 1b, FIG. 5b,c). […] This is also consistent with an increased number of human ILC3s recently observed in psoriatic patients^3,4. Moreover, while γδ T cells have been implicated in a longer treatment course^2,5, analyzing Tcrd^−/− mice, which lack only γδ T cells, Applicants found no evidence that they contribute to disease initiation (FIG. 1b). […] Applicants compared disease phenotype between control mice and those treated with FTY720, which blocks signaling from the S1P1 receptor, preventing egress of T cells from secondary lymphoid tissues and limiting trafficking of induced ILC2s^7,11. […] Thus, in contrast to a model of lung inflammation, in psoriasis, tissue-resident ILCs are sufficient to drive disease pathology and are critical for amplifying the response to IL-23.
(§2) Psoriasis model. The psoriasis model used in this study is based on rIL-23 subcutaneous injections. The 500 ng in 20 μl of rIL-23 (provided by Abbvie or purchased from R&D Systems [scRNAseq experiments]) was injected daily into the ear skin of anesthetized mice in 4 consecutive days. As a control 20 μl of PBS was used with the same injection intervals. For the second challenge experiment, Applicants waited 10 days, monitoring the skin thickness before repeating 4-day injection regimen. Skin thickness was measured daily with calipers. When indicated, FTY720 (1 mg/kg) was dissolved in PBS and administered i.p on day −1, 1 and 3 of the experiment. Skin tissue was collected on day 5 for histology imaging, flow cytometry analysis or cell sorting.

The test system of experiment [1] is circulating total white blood cells. Kind of experiment: Total circulatory white blood cell numbers after FTY720 treatment. The class given is in vivo, mouse. The conditions noted are these: FTY720 1 mg/kg i.p., WT and Rag1−/− mice, vs untreated.
Excerpt: as §1
Psoriasis model. The psoriasis model used in this study is based on rIL-23 subcutaneous injections. […] Skin thickness was measured daily with calipers. […]

Experiment [2] concerns skin ILCs. Briefly: Alternative psoriasis model using topical imiquimod in IL-5 fate / IL-22 BFP / IL-17A GFP reporter mouse. The class given is in vivo.
Experiment [3] concerns skin ILCs. Kind of experiment: Intracellular cytokine staining of skin ILCs after IL-23 treatment. The experiment is classed as in vivo, mouse.
Excerpt: (§3) Next, Applicants tested the prediction of a transition during disease of IL-5-expressing ILC2s into IL-22/IL-17A-expressing ILC3-like cells. Applicants generated an IL-5 fate reporter mouse from IL-5-cre-dTomato (Red5)^50 and Rosa26^flox-Stop-floxYFP, which Applicants then combined with IL-17A^GFP 51 and IL-22^BFP expression reporters (FIG. 4b). […] Moreover, cells that expressed ILC3 type cytokines no longer expressed IL-5 (FIG. 4d). […] Finally, Applicants also tested the model's prediction that there is a subset of skin ILCs in the psoriasis model that co-expresses the type 2 cytokine IL-13 with both of the type 3 cytokines IL-22 and IL-17A.
as §2, with “sorting. […]” for “sorting.”

Experiment [4] concerns skin ILCs. Briefly: IL-5 fate mapping with IL-17A GFP and IL-22 BFP reporters after IL-23 injection. The experiment is classed as in vivo, mouse.
Excerpt: as §3
Mice. C57BL/6, Tcrd^−/− and Rosa26^flox-stop-floxYFP Ai3(RCL-EYFP) mice were purchased from the Jackson Laboratories. Rag1^−/− and Rag2^−/−IL2rg^−/− were purchased from Taconic Biosciences. IL-5 Cre, dTomato (Red5/R5) from Dr Locksley laboratory. The IL-5 fate reporter in this work was generated by crossing Red5 with Ai3(RCL-EYFP) with IL-17A^GFP 51 and IL-22^BFP generated in Applicants laboratory. In order to maximize the Cre recombination and increase the signal of Rosa26^YFP positive cells, Applicants used homozygous IL-5^dTomato, Cre. Applicants observed little to no difference in IL-23 induced skin thicknening (FIG. 8a).
Psoriasis model. […] Skin thickness was measured daily with calipers. […]

Entries after “also recorded” stand apart in the source; their conditions may differ.

On to `CCCCCCCCc1ccc(CCC(N)(CO)CO)cc1` [FTY720, reference compound], for which the “psoriasis phenotype induction upon IL-23 administration (skin thickness)” value with ear skin (FTY720-treated vs untreated controls, WT or Rag1−/− mice) was “no difference”. Further, the “increased susceptibility to a secondary challenge with IL-23 (skin thickness)” value in the experiment with ear skin (FTY720 during the primary injection) is “does not impact; also recorded: also observed”. Moreover, the “circulating total white blood cells” value in experiment [1] was “blocks; also recorded: reduction”.
As to `CC(C)Cn1cnc2c(N)nc3ccccc3c21` [imiquimod], the “IL-22 production, compared with IL-23 injection model” value in the experiment with skin ILCs [2] (topically treated over 10 days) is on record as “less induced”. The “IL-17A producing cells including exIL-5 cells” value in the experiment with skin ILCs [2] (topically treated over 10 days vs untreated mice) is “increase”.
With “IL-23: recombinant cytokine injected subcutaneously into ear skin to induce the psoriasis model”, the “increase in skin thickness over the treatment course” value in the experiment with ear skin (Rag1−/− mice (intact ILCs)) is recorded as “significant increase”. For the same compound, in the experiment with ear skin (Rag2−/− Il2rg−/− double mutant (lacks all lymphocytes)), the “increase in ear thickness” value is on record as “did not show any increase”. Further, in the experiment with ear skin (Rag2−/− Il2rg−/− mice with adoptively transferred sorted skin ILCs), the “skin thickening, treated versus untreated recipient mice” value is given as “significant skin thickening”. Moreover, the skin thickness entry in the experiment with ear skin (WT mice, daily subcutaneous injections, vs PBS vehicle) is “significantly higher; also recorded: increased”. Also, the “time for inflammation and skin thickness to revert to near-baseline levels” value in the experiment on ear skin (after the initial injection) was not above 10 days. In addition, in the experiment with ear skin (second challenge), the “phenotype after a second series of injections compared to initial response” value is recorded as “significantly more severe”. Moreover, the “cells expressing IL-22 and IL-17A that also co-express IL-13” value in the experiment with skin ILCs [3] (Rag1−/− mice) was approximately 20%; with skin ILCs [3] (WT and Tcrd−/− mice), approximately 10%. Moreover, in the experiment on skin ILCs [4] (after IL-23 injection, fate mapping of ILC2s), the “IL-22- and IL-17A-expressing cells that were ex-IL-5 producing cells” value is reported as approximately 10%. The “number of ex-IL-5 cells producing IL-22 and IL-17A” value in the experiment with skin ILCs [4] (second IL-23 challenge) is listed as “further elevated”.

The record behind these values is patent publication US12402610B2, “Methods and compositions for modulating innate lymphoid cell pathogenic effectors” (The Broad Institute, Inc., priority 2018, dated 2025).
